The text below walks through data of Sander's compilation of Henry's law constants (doi:10.1021/ie980743h).

Data set [1] is described as follows: Henry solubility constant Hcp at 293 K (mol/(m3 Pa)). As to conditions: reference: Dohnal and Hovorka (1999).
A short description of data set [2]: Henry solubility constant Hcp at 298.15 K (mol/(m3 Pa)). As to conditions: reference: Dohnal and Hovorka (1999).

On to `ClC(Cl)=C(Cl)Cl` [tetrachloroethene], for which the “Henry solubility constant Hcp at 293 K” value in data set [1] is 0.00086.
As to `ClCC(Cl)Cl` [1,1,2-trichloroethane], the “Henry solubility constant Hcp at 293 K” value in data set [1] turned out to be 0.015.
Still for that read-out and setting: under `CCCCCl` [1-chlorobutane] stands 0.00067; under `CC(Cl)CCl` (centres undefined) [1,2-dichloropropane], 0.0044.
Turning to `Cc1ccc(C)cc1` [1,4-dimethylbenzene], the “Henry solubility constant Hcp” value in data set [2] was determined as 0.0015.
On to `CC(C)OC(C)C` [diisopropyl ether], for which, in data set [2], the “Henry solubility constant Hcp” value was determined as 0.0047.
As to `Cc1ccccc1` [methylbenzene], the “Henry solubility constant Hcp” value in data set [2] is 0.0016.
In the case of `CCC(C)(C)OC` [2-methoxy-2-methylbutane], the “Henry solubility constant Hcp” value in data set [2] turned out to be 0.01.
In the case of `BrCBr` [dibromomethane], the “Henry solubility constant Hcp at 293 K” value in data set [1] was 0.014.
`C=Cc1ccccc1` [ethenylbenzene]: the “Henry solubility constant Hcp” value in data set [2] turned out to be 0.0034.
On the same count and under the same terms, under `Cc1cccc(C)c1` [1,3-dimethylbenzene] stands 0.0015.
Take `c1ccccc1` [benzene]: the “Henry solubility constant Hcp” value in data set [2] is 0.0018.
Regarding `Clc1ccccc1` [chlorobenzene], in data set [1], the “Henry solubility constant Hcp at 293 K” value worked out at 0.0036.
Turning to `Cc1ccccc1C` [1,2-dimethylbenzene], the “Henry solubility constant Hcp” value in data set [2] is 0.0021.
